Several values for one entry are separate records, joined by “and”; a condition that tells them apart may be missing. Equal entries are not always repeated. Where two headings read alike, the source gives them in different places.

The target of one data set is T1, h-OPRM1 (human MOR) (Homo sapiens, UniProt P35372).
T1 construct: host or cells: Chinese hamster ovary (CHO) cells, cAMP Hunter cell line
It counts as cell-based. How it is done: Tracking cAMP Secondary Messenger Pathway in MOR Expressing Cells (DiscoverX)
A Chinese hamster ovary cell line stably expressing non-tagged h-OPRM1 (human MOR) that signal through cAMP was used.
1. cAMP Hunter cell line expressing h-OPRM1 was expanded from freezer stocks according to standard procedures. 2. Cells were seeded in a total volume of 20 μL into white walled, 384-well microplates and incubated at 37° C. for the appropriate time prior to testing. 3. cAMP modulation was determined using the DiscoverX HitHunter cAMP XS+ assay (for further details, see below).
1. For agonist determination, cells were incubated with sample in the presence of EC80 forskolin to induce cAMP-generation and Gi agonist activity, inhibiting cAMP formation, by the test compound was assayed, as follows: 2. Media was aspirated from cells and replaced with 15 μL 2:1 HBSS/10 mM Hepes: cAMP XS+Ab reagent. 3. Intermediate dilution of sample stocks was performed to generate 4× sample in assay buffer containing 4× EC80 forskolin. An amount of 4.5 μL of 4× sample was added to cells and incubated at 37° C. or room temperature for 30 or 60 minutes. The vehicle used for all stock solutions is DMSO and its final concentration in the assay system was 1%.
1. After appropriate compound incubation, assay signal was generated through incubation with 20 μL cAMP XS+ED/CL lysis cocktail for one hour followed by incubation with 20 μL cAMP XS+EA reagent for three hours at room temperature. 2. Microplates were read following signal generation with a PerkinElmer Envision™ instrument for chemiluminescent signal detection.
1. Compound activity was analyzed using CBIS data analysis suite (ChemInnovation, CA). 2. For Gi agonist mode assays, percentage activity is calculated using the following formula: % Activity=100%×(1−(mean RLU of test sample−mean RLU of MAX control)/(mean RLU of vehicle control−mean RLU of MAX control)).
OPRM1, the μ-opioid receptor (MOR), is a GPCR with high affinity for enkephalins and beta-endorphin, but a low affinity for dynorphins. The prototypical OPRM1 agonist is morphine, the primary psychoactive alkaloid in opium. It is an inhibitory G-protein coupled receptor that activates the Gi alpha subunit, inhibiting adenylate cyclase activity, thereby lowering cAMP levels. In order to test synergy of various drug combinations, towards the human receptor (h-OPRM1), a high sensitivity and absolute selectivity assay system, developed by DiscoverX (Fremont, Calif., USA) was employed. The analytical power of this assay, described in detail below, enables unequivocal identification of agonistic or antagonistic activity of drugs towards h-OPRM1, at the biologically relevant cellular context. […] A positive control dose-response was also examined in parallel (see FIG. 6).

For data set [1] the following is noted: single iv bolus dose of 0.5 mg/kg racemic ketamine; for at least 24 hrs; cited from earlier work.
For another data set, the system named is opioid-receptor. The conditions noted are these: opioid agonist; relative to 7-hydroxymitragynine; cited from earlier work.

T1 sequence (P35372 whole entry): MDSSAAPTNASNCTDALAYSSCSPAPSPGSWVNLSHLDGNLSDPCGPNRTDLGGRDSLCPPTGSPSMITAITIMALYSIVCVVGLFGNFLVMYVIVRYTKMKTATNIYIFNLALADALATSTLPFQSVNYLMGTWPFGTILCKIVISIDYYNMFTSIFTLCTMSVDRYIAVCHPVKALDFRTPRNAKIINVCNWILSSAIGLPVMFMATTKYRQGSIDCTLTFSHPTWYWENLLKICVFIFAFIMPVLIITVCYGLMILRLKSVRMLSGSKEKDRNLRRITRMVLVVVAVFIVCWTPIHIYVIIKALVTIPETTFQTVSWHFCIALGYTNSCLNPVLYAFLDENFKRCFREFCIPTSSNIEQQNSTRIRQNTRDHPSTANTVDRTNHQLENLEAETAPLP

As for `CN1c2ccccc2C(NCCCCCCC(=O)O)c2ccc(Cl)cc2S1(=O)=O` (stereo not shown) [Tia, 7-[(3-Chloro-6-methyl-5,5-dioxo-11H-benzo[c][2,1]benzothiazepin-11-yl)amino]heptanoic acid], the “amount of the single agent that obtains the level of activity of the combination” value on h-OPRM1 (human MOR) is given as more than 5 ×.

Consider `N[C@@]1(c2ccccc2Cl)CCC[C@@H](O)C1=O.O=C(O)C(F)(F)F` (racemic) [HNK, rac-(2r,6r)-2 amino-2-(2-chlorophenyl)-6-hydroxycyclohexan-1-one; trifluoroacetic acid, trans], for which the “agonistic activity of the ketamine active metabolite by itself” value at h-OPRM1 (human MOR) is reported as “no agonistic activity”. Also, the “Agonistic activity (% of maximal c-AMP inhibition)” value on h-OPRM1 (human MOR) (HNK 0.08 nM by itself, Table 2/5 series) is 0% and 3.1%; on h-OPRM1 (human MOR) (HNK 0.4 nM by itself, Table 2/5 series), 0% and 7.6%; at h-OPRM1 (human MOR) (HNK 2 nM by itself, Table 2/5 series), 0%; at h-OPRM1 (human MOR) (HNK 10 nM by itself, Table 2/5 series) it was 0%; on h-OPRM1 (human MOR) (HNK 50 nM by itself, Table 1 series), 1.3%; at h-OPRM1 (human MOR) (HNK 50 nM by itself, Table 2/5 series) it was 0% and 6.7%. Further, the “Agonistic activity (% of maximal c-AMP inhibition)” value at h-OPRM1 (human MOR) (HNK 300 nM by itself, Table 1 series) is 10.3%; on h-OPRM1 (human MOR) (HNK 1,800 nM by itself, Table 1 series), −3.4%; at h-OPRM1 (human MOR) (HNK 11,000 nM by itself, Table 1 series), −8.6%.

For `CNC1(c2ccccc2Cl)CCCCC1=O` (racemic) [Ketamine, (RS)-2-(2-Chlorophenyl)-2-(methylamino)cyclohexanone], the HNK serum concentrations entry in data set [1] is “about 30 nM”.

In the case of “10-fluoro ethylene glycol adduct of 7-hydroxymitragynine”, in the data set with opioid-receptor, the “potency higher than 7-hydroxymitragynine” value is on record as 4 fold.

The values above are taken from patent publication US20220000805A1, “COMBINATION OF M-OPIOID RECEPTOR (MOR) MODULATORS FOR PREVENTING AND TREATING PAIN, S[…] MENTAL DISORDERS” (HADAS IT MEDICAL RESEARCH SERVICES & DEVELOPMENT LIMITED, priority 2018, published 2022).
